Measurements from paper PMC11232401, “Characterization of antimalarial activity of artemisinin-based hybrid drugs” (Antimicrobial Agents and Chemotherapy, 2024).
Like-named read-outs stand apart in the source and are kept apart here.

Assays:
[1] = system: heme (iron II)-initiated β-hematin formation; test: β-hematin inhibitory activity under reducing condition (R-BHIA); type: biochemical; conditions: for IC50: mean (95% CI); for Fold changes, IC50 (10 minutes) to IC50 (120 minutes): R-BHIA
Description: The compounds were dissolved in DMSO and diluted in DMSO to six different concentrations (1.0–32 mM). Hemin (Fe^III[PPIX]Cl) (BioXtra, Sigma-Aldrich) was first dissolved in 0.1 M NaOH and then suspended in an 80:20 vol/vol mixture of DMSO and propionate buffer (0.1 M, pH 5.6) to a stock solution at 8 mM. Reduced glutathione (GSH) was dissolved in 0.1 M NaOH and then adjusted to 10 mM using propionate buffer (0.1 M, pH 5.6). […] Then, 20 µL of the drug was added, and the plates were incubated for 2 h at 37°C. The plastic film was removed after drug incubation, 160 µL propionate buffer (1.0 M, pH 5.6) was added, and plates were incubated for 18 h at 37°C. BHIA under the oxidizing condition (O-BHIA) was prepared in parallel without adding GSH. Controls included wells without drugs and wells containing PBS 1× instead of propionate buffer. Afterward, the plates were centrifuged, the supernatant was discarded, and the pellets of β-hematin crystals were washed twice with pure DMSO and then water. The resulting β-hematin crystals were then dissolved in 200 µL 0.1 M NaOH and diluted to a 1:8 ratio. Aliquots were then transferred into a new plate and read by UV-visible absorbance at […]. Percent of BHIA was calculated in comparison to untreated wells (no drugs), and IC50 was then calculated. Two independent experiments were performed using three replicates of each drug concentration ([46]).
(§1) Figure S6: A summary of IC50 values derived from β-hematin inhibitory activity (BHIA). Footnotes for table: ^[a,b^] Values are mean and 95% confidence interval of one experiment, each concentration in triplicate. ^[a] Using heme (Fe[II]PPIX[Cl]) as a starting reagent. ^[b] Using hematin (Fe[III]PPIX[OH]) as a starting reagent. ^[c] […] CQ = chloroquine. R-BHIA = reducing β-hematin inhibitory activity. O-BHIA = oxidizing β-hematin inhibitory activity.

[2] = system: hematin (iron III)-initiated β-hematin formation; test: β-hematin inhibitory activity under oxidizing condition (O-BHIA); type: biochemical; conditions: hematin as starting reagent; mean (95% CI)
Description: The compounds were dissolved in DMSO and diluted in DMSO to six different concentrations (1.0–32 mM). Hemin (Fe^III[PPIX]Cl) (BioXtra, Sigma-Aldrich) was first dissolved in 0.1 M NaOH and then suspended in an 80:20 vol/vol mixture of DMSO and propionate buffer (0.1 M, pH 5.6) to a stock solution at 8 mM. Reduced glutathione (GSH) was dissolved in 0.1 M NaOH and then adjusted to 10 mM using propionate buffer (0.1 M, pH 5.6). For β-hematin inhibitory activity (BHIA) under the reducing condition (R-BHIA), hemin (10 µL) and GSH (10 µL) were distributed in a 96-well plate and homogenized, and the plates were sealed using a thin plastic film and incubated for 1 h at 37°C. Then, 20 µL of the drug was added, and the plates were incubated for 2 h at 37°C. The plastic film was removed after drug incubation, 160 µL propionate buffer (1.0 M, pH 5.6) was added, and plates were incubated for 18 h at 37°C. BHIA under the oxidizing condition (O-BHIA) was prepared in parallel without adding GSH. Controls included wells without drugs and wells containing PBS 1× instead of propionate buffer. Afterward, the plates were centrifuged, the supernatant was discarded, and the pellets of β-hematin crystals were washed twice with pure DMSO and then water. The resulting β-hematin crystals were then dissolved in 200 µL 0.1 M NaOH and diluted to a 1:8 ratio. Aliquots were then transferred into a new plate and read by UV-visible absorbance at […]. Percent of BHIA was calculated in comparison to untreated wells (no drugs), and IC50 was then calculated. Two independent experiments were performed using three replicates of each drug concentration ([46]).
as §1

[3] = In vitro metabolic stability assay in microsomes; type: in vitro ADME; conditions: for half-life at 1 µM: read-out: Degradation half-life; for microsomal CLint at 1 µM: 0.4 mg/mL
Description: In vitro microsomal stability assay was performed in duplicate in a 96-well microtiter plate, using a single-point experiment design ([42]). Test compounds (1 µM) were incubated individually in human (pool of 50, mixed gender), rat (pool of 711, male Sprague Dawley), and mouse (pool of 1,634, male CD1) liver microsomes (Xenotech, Kansas, USA) to a final protein concentration of 0.4 mg/mL, suspended in 0.1 M phosphate buffer (pH 7.4). Incubations were started by the addition of NADPH (1 mM) as a cofactor and shaken for 30 min at 37°C. The reactions were quenched by the addition of 300 µL of ice-cold acetonitrile containing an internal standard (carbamazepine, 0.0236 µg/mL) and centrifuged. The supernatant was transferred to a fresh 96-well plate and analyzed by liquid chromatography-tandem mass spectrometry (LC-MS/MS) (Agilent Rapid Resolution HPLC, AB SCIEX 4500 MS). The relative loss of the parent compound over time was monitored, and plots (concentration vs time) were prepared per compound to determine the first-order rate constant for compound depletion. This was in turn used to calculate half-life, in vitro intrinsic clearance (Clint), and in vivo hepatic extraction ratio ([43]).

[4] = system: F32-ART (resistant) early ring-stage parasites; test: Ring-stage survival assay (RSA0-3h); type: cell-based, Plasmodium falciparum; conditions: 700 nM, 6 h pulse, 66 h growth
Description: Early ring-stage parasites (0–3 h post-invasion) of F32-ART and F32-TEM strains highly synchronized by Percoll-Sorbitol treatment were exposed to 700 nM of the drugs or 0.1% DMSO (control) for 6 h. Each drug was tested in duplicate. Parasite pellets were then washed in RPMI-1640 medium before being placed in drug-free culture conditions with 10% human serum and incubated for 66 h ([44]). Survival rates were assessed microscopically by two independent microscopists by counting the parasites in 10,000 RBCs. Three independent experiments were performed.

P. falciparum 3D7 strain = system: P. falciparum 3D7 strain; design: method as in PMID 31290221, PMID 34832911, PMID 38559731; conditions: asynchronous culture, SYBR Green I; read-out: IC50 (nM, median ± SEM) for P. falciparum 3D7 strain; cited from earlier work
P. berghei-infected mice = system: P. berghei-infected mice; design: method as in PMID 31290221, PMID 34832911, PMID 38559731; conditions: Peters test; cited from earlier work
[5] = reductive step 10 minutes, read-out: IC50 (µM) values of R-BHIA using heme (iron II), 10 minutes
[6] = reductive step 120 minutes, read-out: IC50 (µM) values of R-BHIA using heme (iron II), 120 minutes
[7] = both sexes, pH 7.4, human liver microsomes
[8] = both sexes, human liver microsomes, pH 7.4
[9] = male, CD1, pH 7.4, mouse liver microsomes
[10] = male, CD1, mouse liver microsomes, pH 7.4
[11] = male, Sprague Dawley, pH 7.4, rat liver microsomes
[12] = male, Sprague Dawley, rat liver microsomes, pH 7.4

| SMILES | IC50 [1, 5] | IC50 [1, 6] | IC50 [2] | half-life at 1 µM [3, 7] | microsomal CLint at 1 µM [3, 8] | Drug remaining after 30 min ([3]; human liver microsomes) | half-life at 1 µM [3, 9] | microsomal CLint at 1 µM [3, 10] | half-life at 1 µM [3, 11] | microsomal CLint at 1 µM [3, 12] | Drug remaining after 30 min ([3]; mouse liver microsomes) | Drug remaining after 30 min ([3]; rat liver microsomes) | Survival rate (%) from the RSA0-3h, F32-ART (resistant) ([4]; listed as 1) | Survival rate (%) from the RSA0-3h, F32-ART (resistant) ([4]; listed as hybrid 1) | Fold changes, IC50 (10 minutes) to IC50 (120 minutes) [1] | Fold changes, IC50 (10 minutes) to IC50 (120 minutes) ([1]; listed as LH70 (1)) | IC50 (P. falciparum 3D7 strain) | In vivo parasitemia reduction (%) (P. berghei-infected mice) | Survival rate (%) from the RSA0-3h, F32-ART (resistant) ([4]; listed as 2) | Survival rate (%) from the RSA0-3h, F32-ART (resistant) ([4]; listed as hybrid 2) |
| --- | --- | --- | --- | --- | --- | --- | --- | --- | --- | --- | --- | --- | --- | --- | --- | --- | --- | --- | --- | --- |
| C[C@H]1[C@@H](O)O[C@@H]2O[C@@]3(C)CC[C@H]4[C@H](C)CC[C@@H]1[C@@]24OO3 [DHA, dihydroartemisinin, reference compound] | 262 µM | 161 µM | > 1000 µM | – | – | – | – | – | – | – | – | – | – | – | – | – | – | – | – | – |
| COCCOCCOCCOCCn1c(-c2ccc(-n3cc(-c4ccc(OC5OC6OC7(C)CCC8C(C)CCC(C5C)C68OO7)cc4)nn3)cc2)nc2ccccc21 (stereo not shown) [Hybrid 1] | 609 µM | 284 µM | > 1000 µM | 5 min | 379 µL/min/mg | 1% | 7 min | 240 µL/min/mg | 9 min | 186 µL/min/mg | 6% | 10% | 2.3 ± 0.7% | ~2% | 3 | 2.1 | 3 ± 0.2 nM | > 99% | – | – |
| CC1CCC2C(C)C(OC(=O)CCC(=O)OCCNc3ccnc4cc(Cl)ccc34)OC3OC4(C)CCC1C32OO4 (stereo not shown) [Hybrid 2] | – | – | – | 4 min | 479 µL/min/mg | 0.3% | 6 min | 275 µL/min/mg | 5 min | 376 µL/min/mg | 4% | 1% | – | – | – | – | 4.5 ± 0.5 nM | 89.4 ± 1.5% | 14.8 ± 6% | ~15% |
